{"source": "paper PMC11413853", "about": "“Discovery of VU6007496: Challenges in the Development of an M1 Positive Allosteric Modulator Backup Candidate” (ACS Chemical Neuroscience, 2024)", "key": {"mouse M1": {"molecular_target": "T1, mouse M1 (Mus musculus, UniProt P12657)", "T1 construct": "expressed in transfected cells; host or cells: CHO (stated in general for all functional cell-based assays)", "T1 sequence (P12657 whole entry)": "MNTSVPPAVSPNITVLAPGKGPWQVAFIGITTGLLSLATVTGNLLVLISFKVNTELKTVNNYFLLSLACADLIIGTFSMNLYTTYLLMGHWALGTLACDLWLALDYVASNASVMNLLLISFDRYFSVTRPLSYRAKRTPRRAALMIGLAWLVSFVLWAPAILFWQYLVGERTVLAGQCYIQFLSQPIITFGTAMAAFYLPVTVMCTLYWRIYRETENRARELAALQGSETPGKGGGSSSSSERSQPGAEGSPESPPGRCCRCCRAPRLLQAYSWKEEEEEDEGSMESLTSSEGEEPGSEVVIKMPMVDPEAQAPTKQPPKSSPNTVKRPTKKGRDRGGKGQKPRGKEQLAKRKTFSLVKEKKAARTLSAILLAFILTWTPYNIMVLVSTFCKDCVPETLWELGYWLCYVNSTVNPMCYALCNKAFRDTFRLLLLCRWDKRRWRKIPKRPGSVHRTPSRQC", "test": "Calcium mobilization assay, mouse M1 PAM", "format": "cell-based", "settings": "PAM mode"}, "[1]": {"test": "Rat satellite PK study, 3 mg/kg p.o.", "format": "in vivo", "settings": "3 mg/kg p.o. (NOR MED)", "source_text": "Historically, our PK/PD for M1 PAMs in NOR has a strong correlation with total brain as opposed to unbound levels, with MEDs typically 0.25 to 0.4 of the rat EC50.[21] This may be due to higher endogenous cholinergic tone in healthy animals, and the in vitro PAM EC50s being derived from an arbitrarily selected EC20 concentration of ACh as a subthreshold value."}, "CYP1A2": {"tested_on": "CYP1A2", "test": "CYP induction (mRNA) in cryopreserved human hepatocytes, CYP1A2", "format": "in vitro ADME", "settings": "three donors", "source_text": "To advance 11 as a candidate and into IND-enabling studies, we next needed to better understand its CYP profile to minimize drug–drug interactions in the clinic. […] We were pleased to see the contribution of another CYP beyond 3A4 for the metabolism of 11.[21] In parallel, we investigated the ability of PAM 11 to induce the expression of CYP450s (measuring mRNA) in cryopreserved human hepatocytes from three separate donors."}, "MET ID in rat liver S9": {"test": "MET ID in rat liver S9", "format": "in vitro ADME", "settings": "based on MS peak areas", "source_text": "(§1) Eight oxidative metabolites were identified, with the major metabolite in both rat and human being Metabolite A (VU6036463, 24), the result of oxidative N-demethylation of the southern pyrazole (Scheme 4). The majority of other oxidative metabolism occurred on the tetrahydropyran moiety and included ring opening, but there was no amide hydrolysis observed.[21]"}, "MET ID in human liver S9": {"test": "MET ID in human liver S9", "format": "in vitro ADME", "settings": "based on MS peak areas", "source_text": "as §1"}, "Hepatocyte MET ID, mouse": {"test": "Hepatocyte MET ID, mouse", "format": "in vitro ADME", "source_text": "We typically would not examine mouse hepatocyte MET ID, as mouse was not a safety species for the IND-enabling toxicology package, but with the unusual metabolism profile for human, and the lack of predictive cholinergic tox in the mouse phenotypic assay, we felt this was worthy of exploration. […] Clearly, based on the hepatocyte data, there is a tremendous difference in the concentration of parent 11 and metabolite composition, which sheds light on the mouse-rat disconnect for observed cholinergic toxicity in rat versus the more cholinergic sensitive mouse."}, "[2]": {"test": "Rat dose escalation study (p.o., 30% captisol)", "format": "in vivo", "settings": "for Cmax: brain, read-out: total brain concentration at Cmax", "description": "While awaiting more definitive MET ID studies in multispecies hepatocytes, we elected to perform a rat dose escalation study to assess exposures in a standard, tox-friendly oral vehicle (30% captisol) to lay the foundation for dose range finding/maximum tolerated dose (DRF/MTD) studies. Male Sprague–Dawley rats were dosed with VU6007496 (11) at doses of 3, 10, 30, 100, and 300 mg/kg p.o. in 30% captisol. […]. […] Recall, exposures in rat at the NOR MED were 990 nM total and 39.8 nM unbound brain concentrations, respectively. […]"}, "Adenosine A2A": {"tested_on": "Adenosine A2A", "test": "Eurofins radioligand binding", "set-up": "species or system Human", "settings": "specific binding"}, "Androgen (Testosterone)": {"tested_on": "Androgen (Testosterone)", "test": "Eurofins radioligand binding", "set-up": "species or system Human", "settings": "specific binding"}, "Bradykinin B2": {"tested_on": "Bradykinin B2", "test": "Eurofins radioligand binding", "set-up": "species or system Human", "settings": "specific binding"}, "Cannabinoid CB1": {"tested_on": "Cannabinoid CB1", "test": "Eurofins radioligand binding", "set-up": "species or system Human", "settings": "specific binding"}, "Dopamine D4.4": {"tested_on": "Dopamine D4.4", "test": "Eurofins radioligand binding", "set-up": "species or system Human", "settings": "specific binding"}, "[3]": {"tested_on": "Epidermal Growth Factor (EGF)", "test": "Eurofins radioligand binding", "set-up": "species or system Human", "settings": "specific binding"}, "[4]": {"tested_on": "GABAA, Flunitrazepam, Central", "test": "Eurofins radioligand binding", "set-up": "species or system Rat", "settings": "specific binding"}, "GABAB1A": {"tested_on": "GABAB1A", "test": "Eurofins radioligand binding", "set-up": "species or system Human", "settings": "specific binding"}, "Glucocorticoid": {"tested_on": "Glucocorticoid", "test": "Eurofins radioligand binding", "set-up": "species or system Human", "settings": "specific binding"}, "Glutamate, Kainate": {"tested_on": "Glutamate, Kainate", "test": "Eurofins radioligand binding", "set-up": "species or system Rat", "settings": "specific binding"}, "[5]": {"tested_on": "Glutamate, NMDA, Phencyclidine", "test": "Eurofins radioligand binding", "set-up": "species or system Rat", "settings": "specific binding"}, "Histamine H1": {"tested_on": "Histamine H1", "test": "Eurofins radioligand binding", "set-up": "species or system Human", "settings": "specific binding"}, "Histamine H2": {"tested_on": "Histamine H2", "test": "Eurofins radioligand binding", "set-up": "species or system Human", "settings": "specific binding"}, "Imidazoline I2, Central": {"tested_on": "Imidazoline I2, Central", "test": "Eurofins radioligand binding", "set-up": "species or system Rat", "settings": "specific binding"}, "Muscarinic M2": {"tested_on": "Muscarinic M2", "test": "Eurofins radioligand binding", "set-up": "species or system Human", "settings": "specific binding"}, "[6]": {"tested_on": "Nicotinic Acetylcholine α1, Bungarotoxin", "test": "Eurofins radioligand binding", "set-up": "species or system Human", "settings": "specific binding"}, "Opiate δ1 (OP1, DOP)": {"tested_on": "Opiate δ1 (OP1, DOP)", "test": "Eurofins radioligand binding", "set-up": "species or system Human", "settings": "specific binding"}, "Opiate κ (OP2, KOP)": {"tested_on": "Opiate κ (OP2, KOP)", "test": "Eurofins radioligand binding", "set-up": "species or system Human", "settings": "specific binding"}, "Opiate μ (OP3, MOP)": {"tested_on": "Opiate μ (OP3, MOP)", "test": "Eurofins radioligand binding", "set-up": "species or system Human", "settings": "specific binding"}, "Phorbol Ester": {"tested_on": "Phorbol Ester", "test": "Eurofins radioligand binding", "set-up": "species or system Mouse", "settings": "specific binding"}, "[7]": {"tested_on": "Platelet Activating Factor (PAF)", "test": "Eurofins radioligand binding", "set-up": "species or system Human", "settings": "specific binding"}, "Potassium Channel hERG": {"tested_on": "Potassium Channel hERG", "test": "Eurofins radioligand binding", "settings": "human, specific binding"}, "Prostanoid EP4": {"tested_on": "Prostanoid EP4", "test": "Eurofins radioligand binding", "set-up": "species or system Human", "settings": "specific binding"}, "Purinergic P2X": {"tested_on": "Purinergic P2X", "test": "Eurofins radioligand binding", "set-up": "species or system Rat", "settings": "specific binding"}, "[8]": {"tested_on": "Purinergic P2Y, Non-Selective", "test": "Eurofins radioligand binding", "set-up": "species or system Rat", "settings": "specific binding"}}, "note": "Like-named read-outs stand apart in the source and are kept apart here.", "data": [{"smiles": "Cn1ccc(-c2ccc(Cc3cc(C(=O)NC4CCOCC4)nc4ccn(C)c34)cc2)n1", "note": "[compound 11]", "values": [{"measurement": "EC50", "setting": "mouse M1", "value": 92, "unit": "nM"}, {"measurement": "mouse M1 PAM ACh max", "setting": "mouse M1", "value": 66, "unit": "%"}, {"measurement": "total brain concentration", "setting": "[1]", "value": 990, "unit": "nM"}, {"measurement": "unbound brain concentration", "setting": "[1]", "value": 0.0398, "unit": "µM"}, {"measurement": "CYP1A2 induction (mRNA)", "setting": "CYP1A2", "value": "~3", "unit": "fold"}, {"measurement": "extent of metabolism, rat liver S9", "setting": "MET ID in rat liver S9", "value": 36.8, "unit": "%"}, {"measurement": "extent of metabolism, human liver S9", "setting": "MET ID in human liver S9", "value": 58.1, "unit": "%"}, {"measurement": "extent of metabolism, mouse hepatocytes", "setting": "Hepatocyte MET ID, mouse", "value": 95.4, "unit": "%"}, {"measurement": "Cmax", "setting": "[2]; male, Sprague-Dawley, po, rat, 100 mg/kg p.o.", "value": 9.1, "unit": "µM"}, {"measurement": "Cmax", "setting": "[2]; male, Sprague-Dawley, po, rat, 300 mg/kg p.o.", "value": 17.2, "unit": "µM"}, {"measurement": "Tmax", "setting": "[2]; male, Sprague-Dawley, in vivo, po, rat, 3, 10, 30, 100, and 300 mg/kg p.o., all doses", "value": "< 2", "unit": "h"}, {"measurement": "fold over the NOR MED exposure", "setting": "[2]; rat, 100 mg/kg p.o.", "value": "~9", "unit": "fold"}, {"measurement": "unbound brain concentration at Cmax", "setting": "[2]; rat, 100 mg/kg p.o.", "value": 0.298, "unit": "µM"}, {"measurement": "fold over the NOR MED exposure", "setting": "[2]; rat, 300 mg/kg p.o.", "value": "~17", "unit": "fold"}, {"measurement": "unbound brain concentration at Cmax", "setting": "[2]; rat, 300 mg/kg p.o.", "value": 0.569, "unit": "µM"}, {"measurement": "adverse cholinergic events", "setting": "[2]; rat, 100 and 300 mg/kg p.o. dose groups, after 4.5 h", "value": "severe adverse cholinergic events"}, {"measurement": "dose proportionality of exposure", "setting": "[2]; rat, from 3 to 30 mg/kg p.o.", "value": "Linear dose escalation"}, {"measurement": "cholinergic toxicity", "setting": "[2]; rats, 30 mg/kg p.o.", "value": "not observed"}, {"measurement": "window from the MED", "setting": "[2]; rats, 30 mg/kg p.o. vs MED 3 mg/kg", "value": 10, "unit": "fold"}, {"measurement": "% Inhibition at 10 µM", "setting": "Adenosine A2A", "value": -11, "unit": "%"}, {"measurement": "% Inhibition at 10 µM", "setting": "Androgen (Testosterone)", "value": -24, "unit": "%"}, {"measurement": "% Inhibition at 10 µM", "setting": "Bradykinin B2", "value": -3, "unit": "%"}, {"measurement": "% Inhibition at 10 µM", "setting": "Cannabinoid CB1", "value": 5, "unit": "%"}, {"measurement": "% Inhibition at 10 µM", "setting": "Dopamine D4.4", "value": 1, "unit": "%"}, {"measurement": "% Inhibition at 10 µM", "setting": "[3]", "value": 5, "unit": "%"}, {"measurement": "% Inhibition at 10 µM", "setting": "[4]", "value": -3, "unit": "%"}, {"measurement": "% Inhibition at 10 µM", "setting": "GABAB1A", "value": 4, "unit": "%"}, {"measurement": "% Inhibition at 10 µM", "setting": "Glucocorticoid", "value": 5, "unit": "%"}, {"measurement": "% Inhibition at 10 µM", "setting": "Glutamate, Kainate", "value": -19, "unit": "%"}, {"measurement": "% Inhibition at 10 µM", "setting": "[5]", "value": 7, "unit": "%"}, {"measurement": "% Inhibition at 10 µM", "setting": "Histamine H1", "value": 5, "unit": "%"}, {"measurement": "% Inhibition at 10 µM", "setting": "Histamine H2", "value": 28, "unit": "%"}, {"measurement": "% Inhibition at 10 µM", "setting": "Imidazoline I2, Central", "value": -9, "unit": "%"}, {"measurement": "% Inhibition at 10 µM", "setting": "Muscarinic M2", "value": 0, "unit": "%"}, {"measurement": "% Inhibition at 10 µM", "setting": "[6]", "value": -3, "unit": "%"}, {"measurement": "% Inhibition at 10 µM", "setting": "Opiate δ1 (OP1, DOP)", "value": 5, "unit": "%"}, {"measurement": "% Inhibition at 10 µM", "setting": "Opiate κ (OP2, KOP)", "value": 32, "unit": "%"}, {"measurement": "% Inhibition at 10 µM", "setting": "Opiate μ (OP3, MOP)", "value": -4, "unit": "%"}, {"measurement": "% Inhibition at 10 µM", "setting": "Phorbol Ester", "value": -1, "unit": "%"}, {"measurement": "% Inhibition at 10 µM", "setting": "[7]", "value": -13, "unit": "%"}, {"measurement": "inhibition at 10 µM", "setting": "Potassium Channel hERG", "value": 11, "unit": "%"}, {"measurement": "% Inhibition at 10 µM", "setting": "Prostanoid EP4", "value": 16, "unit": "%"}, {"measurement": "% Inhibition at 10 µM", "setting": "Purinergic P2X", "value": 17, "unit": "%"}, {"measurement": "% Inhibition at 10 µM", "setting": "[8]", "value": -9, "unit": "%"}]}]}
